Data taken from patent US7838485B2, “Biodegradable alkaline disinfectant cleaner with analyzable surfactant” (American Sterilizer Company, priority 2007, dated 2010).

Test system: S. aureus ATCC 6538
Assay: Quantitative modified AOAC Use Dilution Test, log reduction on stainless steel penicylinders
Assay type: cell-based
Settings: 5% Fetal bovine serum soil load, contact time 10 min., 10% of the product
Text: Tests were done using the aforementioned modified version of the AOAC Use Dilution Test, to quantify the number of viable bacteria remaining on the stainless steel penicylinders. […] Starting populations are listed in parentheses.

With `[Na+].[OH-]` [13% NaOH, sodium hydroxide] the “Average Log Reduction” value (40° C.) was 2.69, the “Average Log Reduction” value (60° C.) was 7.00 and the “Average Log Reduction” value (RT) was 1.76.
